Here are results for 1 compound from paper PMC12196278, “Targeting Neuronal Nitric Oxide Synthase (nNOS) as a Novel Approach to Enhancing the Anti-Melanoma Activity of Immune Checkpoint Inhibitors” (Pharmaceutics, 2025).

For orientation: Ki means a measure of affinity in units of concentration, obtained from inhibition or displacement. By IC50 is commonly meant the midpoint of a concentration-inhibition curve.

Molecules are shown by their SMILES. Like-named read-outs stand apart in the source and are kept apart here.

For one data set, the system named is peripheral T cells. As to the kind of experiment: Immune profile of peripheral T cells in allograft melanoma mice (flow cytometry). Type of data set: in vivo, mouse. To be noted: HH044 10 mg/kg intraperitoneal daily, peripheral blood, vs control group. As to the method:
The in vivo studies were carried out in compliance with the ARRIVE guidelines. All animal procedures were approved by the Institutional Animal Care and Use Committee (IACUC) at Chapman University and conducted in compliance with the policies of Chapman University and federal, state, and local animal welfare authorities. DBA/2 mice were purchased from Charles River (Wilmington, MA, USA) and housed in the Chapman University vivarium. Male mice were selected for the in vivo studies due to the markedly slow growth rate of CS91 cells in female mice observed in previous studies. To induce melanoma tumor growth, the mice were injected subcutaneously with 1 × 10^5 CS91 murine melanoma cells in a 100 μL solution of 50% Matrigel basement membrane matrix (CB354248, Corning, Corning, NY, USA). […] At the end of the study, peripheral blood was collected from the mice for T cell analysis.
Cells were blocked in FACS block buffer (0.5% BSA, 2% FBS in 1× PBS) and incubated in a surface marker antibody dilution in FACS wash buffer (0.5% BSA, 0.05% NaN3 in 1× PBS). Following fixation with True-Nuclear Fix Buffer (424401; BioLegend, San Diego, CA, USA), the cells were incubated with an intracellular antibody diluted in True-Nuclear Perm Buffer (424401; BioLegend, San Diego, CA, USA) overnight at 4 °C. The stained cells were then washed with Perm Buffer and analyzed using a BD Fortessa X20 flow cytometer (BD Biosciences, San Jose, CA, USA). Compensation beads (anti-mouse 552843; anti-rat 552844; BD Biosciences, Franklin Lakes, NJ, USA) stained with single antibodies were used to calculate the compensation, and data were analyzed and gated using FlowJo v. 10.8.1 (FlowJo LLC, Ashland, OR, USA).
Peripheral blood samples were collected from the DBA/2 mice at the end of the study. T cells were isolated from the blood using Ficoll separation and stained as described above. The Ficoll-Paque solution was obtained from Cytiva (17144002; Marlborough, MA, USA). The T cell marker antibodies used were Brilliant Violet 605 anti-mouse CD3, PE/Cyanine7 anti-mouse CD4, Brilliant Violet 785 anti-mouse CD8a, APC/Cyanine7 anti-mouse CD279 (PD-1), Alexa Fluor 647 anti-GATA3, Alexa Fluor 488 anti-mouse FOXP3, Brilliant Violet 421 anti-T-bet (100237; 100421; 100749; 135223; 653809; 126406; 644815; BioLegend, San Diego, CA, USA), and PE-CF594 mouse anti-mouse RORγt (562684; BD Biosciences, Franklin Lakes, NJ, USA).
Background: A flow cytometer gives signals particle by particle.

The next data set concerns A375 cells. As to the kind of experiment: NanoString nCounter PanCancer IO 360 gene expression profiling. In kind it is cell-based, human. As for the experimental part:
After treatment, the total RNA samples were collected from A375 cells using an RNeasy Mini Kit (#74104; Qiagen, Hilden, Germany) and stored at −80 °C prior to analysis. The nCounter PanCancer IO 360 Panel and nCounter Pro Analysis System (NanoString, Seattle, WA, USA) were used to quantify gene expression changes in 770 genes implicated in immune-oncological processes. The transcriptomic data were analyzed using ROSALIND online platform (https://www.rosalind.bio/, San Diego, CA, USA).
(b) Comparing IFN-γ treatment to control. (c) Comparing the combination treatment to IFN-γ alone. […] All the treatments were independently repeated three times. […] The analysis was based on the expression changes of genes involved in each specific pathway, with a higher score signifying a greater probability of pathway involvement.

Data set [1] deals with CS91 murine melanoma allograft. As to the kind of experiment: Survival analysis in the murine melanoma model (endpoint tumor volume 2000 mm^3). Type of data set: in vivo, mouse. The settings on record: DBA/2 mice, CS91, result in words. As for the experimental part: (§1) As described above, male DBA/2 mice were purchased from Charles River and housed in the Chapman University vivarium under pathogen-free conditions. Each mouse received a subcutaneous injection in the flank with 0.25 × 10^6 CS91 cells suspended in 50% Matrigel. […] The body weight and tumor volume were measured twice weekly for three weeks. Tumors were measured using calipers, and the volume (mm^3) was calculated with the following formula: volume = [length × (width^2)]/2. The mice were sacrificed once their tumors reached 2000 mm^3, and dates were recorded for survival analysis.
Statistical analyses were carried out using GraphPad Prism 9. Comparisons of multiple groups were performed using mixed-effects analysis of variance (ANOVA) followed by Tukey’s post hoc test for parametric data. Statistical comparisons of two groups were performed using an unpaired two-tailed t-test for parametric data. Statistical comparison for a simple 2 × 2 contingency table was performed using a Chi-Square calculator on Social Science Statistics. Kaplan Meier methods were utilized for estimating the survival probability over time, with a tumor volume of 2000 mm^3 marking the endpoint for the survival study. A p value less than 0.05 was considered statistically significant for all statistical analyses. Data are graphically represented as bar graphs with the mean ± standard error of the mean (SEM).

The target of the next data set is Human eNOS (Homo sapiens, UniProt P29474). The data set can be described thus: NOS selectivity assay, human eNOS. In kind it is biochemical. The settings on record: calculated from IC50 with Cheng-Prusoff equation; read-out: Ki Human eNOS (he). As for the experimental part:
The Ki values were calculated from the IC50 values of the corresponding dose-response curves using the Cheng-Prusoff equation. […] All standard errors were less than 5%. Selectivity values were determined by calculating the ratios of the respective Ki values.

The subject of data set [2] is CS91 murine melanoma allograft. The data set can be described thus: In vivo anti-melanoma efficacy, immunocompetent allograft model, tumor volume. The settings on record: day 18, DBA/2 mice, nNOS inhibitor 10 mg/kg/day intraperitoneal, anti-PD-1 100 µg twice per week for 2 weeks. Also noted: species or system mouse. As to the method: as §1
The next data set has as its target Human nNOS (Homo sapiens, UniProt P29475). The data set can be described thus: nNOS inhibitory assay, human nNOS. Type of data set: biochemical. The settings on record: calculated from IC50 with Cheng-Prusoff equation; read-out: Ki Human nNOS (hn). As for the experimental part: The Ki values were calculated from the IC50 values of the corresponding dose-response curves using the Cheng-Prusoff equation. […] Selectivity values were determined by calculating the ratios of the respective Ki values.

The test system of a further data set is melanoma cells. Details: method as in PMID 35105915. To be noted: read-out: Cytotoxicity IC50; cited from earlier work.
In a further data set the test system is CS91 cells. The data set can be described thus: Ex vivo sensitivity of murine melanoma cells after prolonged treatment (MTT). Type of data set: cell-based, mouse. As to the method:
The aseptically collected tumor samples were mechanically dissociated in 1× PBS and passed through a 40 µm cell strainer. Single cell suspensions were centrifuged and resuspended in full growth media supplemented with 100 µg/mL of primocin. The cells were then plated and allowed to adhere for 24 h. Afterward, the cultures were washed twice with 1× PBS to remove non-adherent cells and allowed to grow in full growth media.
GraphPad Prism 9 was used to determine the IC50 of each compound by plotting the percent cell viability against the log drug concentrations and fitted using a nonlinear fit of the normalized data.

The nature of data set [3]: Body weight, cecum weight and toxicity signs in treated mice. Type of data set: in vivo, mouse. As for the experimental part: as §1
Upon reaching the study endpoint, the mice were euthanized, and organs were collected and weighed.

Human eNOS, sequence (P29474 whole entry): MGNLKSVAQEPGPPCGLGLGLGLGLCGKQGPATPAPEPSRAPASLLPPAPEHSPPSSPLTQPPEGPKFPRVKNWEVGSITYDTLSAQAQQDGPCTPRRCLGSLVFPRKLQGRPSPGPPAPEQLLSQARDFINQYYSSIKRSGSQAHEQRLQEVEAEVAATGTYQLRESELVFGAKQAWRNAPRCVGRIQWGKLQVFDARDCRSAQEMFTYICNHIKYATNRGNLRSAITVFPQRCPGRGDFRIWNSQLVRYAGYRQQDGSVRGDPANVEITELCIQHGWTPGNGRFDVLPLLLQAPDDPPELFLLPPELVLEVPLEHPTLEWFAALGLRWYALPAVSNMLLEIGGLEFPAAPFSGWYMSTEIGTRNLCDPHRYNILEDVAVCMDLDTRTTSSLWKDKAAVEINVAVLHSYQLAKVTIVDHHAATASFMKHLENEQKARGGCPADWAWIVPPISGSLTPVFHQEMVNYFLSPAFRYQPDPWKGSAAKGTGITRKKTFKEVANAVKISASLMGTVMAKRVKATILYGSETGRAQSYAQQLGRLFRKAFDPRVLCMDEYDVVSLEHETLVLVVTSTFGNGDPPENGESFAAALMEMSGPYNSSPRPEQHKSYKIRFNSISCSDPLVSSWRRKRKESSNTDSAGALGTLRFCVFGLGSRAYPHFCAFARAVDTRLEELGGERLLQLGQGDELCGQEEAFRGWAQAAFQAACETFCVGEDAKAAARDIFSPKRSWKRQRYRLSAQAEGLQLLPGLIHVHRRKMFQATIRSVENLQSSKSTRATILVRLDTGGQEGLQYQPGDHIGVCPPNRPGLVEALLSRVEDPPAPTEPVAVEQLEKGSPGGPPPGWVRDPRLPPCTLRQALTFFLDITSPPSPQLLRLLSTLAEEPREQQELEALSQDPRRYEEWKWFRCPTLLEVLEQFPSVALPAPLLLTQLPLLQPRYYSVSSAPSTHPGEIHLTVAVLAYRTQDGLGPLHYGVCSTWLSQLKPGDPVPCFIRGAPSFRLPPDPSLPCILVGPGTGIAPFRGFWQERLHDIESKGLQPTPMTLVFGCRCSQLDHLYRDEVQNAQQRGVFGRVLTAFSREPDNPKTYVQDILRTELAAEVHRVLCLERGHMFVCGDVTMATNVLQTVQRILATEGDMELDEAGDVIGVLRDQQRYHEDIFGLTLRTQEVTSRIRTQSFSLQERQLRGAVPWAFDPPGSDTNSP
Human nNOS, sequence (P29475 whole entry): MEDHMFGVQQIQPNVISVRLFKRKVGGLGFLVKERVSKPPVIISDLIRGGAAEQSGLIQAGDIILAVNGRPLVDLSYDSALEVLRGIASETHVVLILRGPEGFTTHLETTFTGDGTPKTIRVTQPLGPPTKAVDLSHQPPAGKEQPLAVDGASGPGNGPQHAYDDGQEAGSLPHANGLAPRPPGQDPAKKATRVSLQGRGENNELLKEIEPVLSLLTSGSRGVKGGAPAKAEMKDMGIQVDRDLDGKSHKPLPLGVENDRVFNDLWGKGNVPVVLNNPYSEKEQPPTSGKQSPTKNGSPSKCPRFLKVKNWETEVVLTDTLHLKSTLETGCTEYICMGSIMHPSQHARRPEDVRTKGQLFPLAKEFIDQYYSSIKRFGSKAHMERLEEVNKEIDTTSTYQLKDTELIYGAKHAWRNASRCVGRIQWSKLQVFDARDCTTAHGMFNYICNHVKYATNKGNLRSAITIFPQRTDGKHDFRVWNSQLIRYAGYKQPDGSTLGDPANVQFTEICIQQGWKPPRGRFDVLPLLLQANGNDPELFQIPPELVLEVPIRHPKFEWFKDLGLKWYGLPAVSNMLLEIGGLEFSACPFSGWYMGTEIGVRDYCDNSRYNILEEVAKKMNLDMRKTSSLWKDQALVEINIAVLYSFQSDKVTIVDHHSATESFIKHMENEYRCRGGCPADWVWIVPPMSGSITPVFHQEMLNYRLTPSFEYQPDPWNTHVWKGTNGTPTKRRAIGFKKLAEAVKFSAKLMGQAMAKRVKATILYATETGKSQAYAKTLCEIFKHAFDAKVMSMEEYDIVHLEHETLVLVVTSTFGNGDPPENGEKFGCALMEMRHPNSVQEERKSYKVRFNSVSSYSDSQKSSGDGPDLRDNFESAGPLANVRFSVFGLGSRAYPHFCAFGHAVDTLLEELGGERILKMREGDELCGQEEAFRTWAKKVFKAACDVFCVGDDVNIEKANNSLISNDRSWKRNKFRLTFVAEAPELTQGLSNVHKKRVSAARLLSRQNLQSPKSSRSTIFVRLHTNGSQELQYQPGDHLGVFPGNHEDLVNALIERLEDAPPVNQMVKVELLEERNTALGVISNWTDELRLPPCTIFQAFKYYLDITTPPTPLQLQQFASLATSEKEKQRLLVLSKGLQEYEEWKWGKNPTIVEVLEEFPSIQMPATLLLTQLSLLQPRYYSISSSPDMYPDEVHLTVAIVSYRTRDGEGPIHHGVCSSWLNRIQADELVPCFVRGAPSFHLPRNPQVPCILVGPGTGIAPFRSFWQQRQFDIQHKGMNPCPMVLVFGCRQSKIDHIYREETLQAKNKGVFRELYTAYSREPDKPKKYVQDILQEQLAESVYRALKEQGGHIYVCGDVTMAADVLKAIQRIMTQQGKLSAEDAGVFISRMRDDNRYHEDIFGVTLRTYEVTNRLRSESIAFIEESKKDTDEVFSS

For the compound `N=C(Nc1ccc(CCNCc2cccc(NC(=N)c3cccs3)c2)cc1)c1cccs1` [HH044], in the data set on peripheral T cells, the “CD4+ T cell counts” value was “significantly increased”; the “CD4+GATA3+, CD4+RORγt+, CD4+Tbet+, and CD4+RORγt+FOXP3+ T cell counts” value is given as “decreased”; the “CD8+FOXP3+, CD8+GATA3+, CD8+Tbet+, and CD8+RORγt+FOXP3+ T cells” value is “significantly decreased”; the “frequency of CD8+PD-1+ T cells” value is “markedly increased”. Also, the “overall percentage of CD8+ T cells” value with peripheral T cells is given as “significantly decreased”. Besides, the Notch2 expression entry in the data set on A375 cells (HH044 in the presence of IFN-γ) is “increased”. Besides, in the data set with A375 cells (HH044 treatment, A375), the AXIN1 expression result is “increased” and the WNT5A expression result is recorded as “downregulated”. In the data set on A375 cells (HH044 treatment, A375, p < 0.05), the IL-1α expression is 30.3 % of the control. For the same compound, in the data set on A375 cells (HH044 treatment, A375, vs control), the “expression of EDN1, PDGFB, and MMP9” value is recorded as “significantly reduced”. Further, the “median survival / mouse survival compared with the control group” value in data set [1] is “not found to have significantly different median survival values”. The Ki on Human eNOS is 6.74 µM. Besides, the “tumor growth / average tumor volume” value in data set [2] was 45.7 % of the control. On Human nNOS, the Ki is 0.02 µM. Moreover, in the data set with melanoma cells, the IC50 is 5.27 ± 3.3 µM. For the same compound, the IC50 with CS91 cells (mice treated with the same compound 10 mg/kg/day intraperitoneal, read-out: IC50 of CS91 cells isolated from tumors of nNOS inhibitor-treated mice) is 10.4 µM. For the same compound, the IC50 with CS91 cells (read-out: IC50 of in vitro cultured CS91 cells) worked out at 12.7 µM. The cecum weights result in data set [3] (HH044 intraperitoneal 10 mg/kg/day ≥21 days vs control, p < 0.0001) is “significantly increased”. Further, the cecum weight result in [3] (HH044 oral gavage 10, 25 and 50 mg/kg per os daily, preliminary study) is “failed to observe any significant differences”. Further, in data set [3] (HH044 treatment ≥21 days), the “behavior and signs of toxicity during treatment” value is given as “no behavioral changes or other observable signs of severe toxicity or distress”. For the same compound, the body weight in data set [3] (HH044 treatment, 21 days) is reported as 88 % of the control. Besides, in data set [3] (prolonged treatment, 21 days), the “body weight compared with the control” value is “significantly lower”.
